Measurements as given in a melting point compilation (Tetko et al.; mined from patent text by program, amines drawn as free bases though some values may be those of a salt).

Point of comparison: O=[N+]([O-])c1ncn(COC(CO)CO)n1, melting point 132 °C. Against it:
- CCOC(=O)c1ccc(OCCCCCCCCCCBr)cc1 — lower, 41 to 42 °C
- CN1CCN(Cc2ccc(-c3cc4ncnc(Nc5ccc6[nH]ccc6c5)c4s3)cc2)CC1 — higher, 143 to 150 °C
- O=S(=O)(Nc1cccc(OCc2ccc3ccccc3n2)c1)C(F)(F)F — higher, 144 to 146 °C
- CC(=O)Nc1ccc2ccccc2c1-c1c(P(=O)(c2ccccc2)c2ccccc2)ccc2ccccc12 — lower, 95.4 °C
- COc1ccc(C=Cc2nc(CCl)co2)cc1 — higher, 148 to 151 °C
- Cc1nc2c(OCc3c(Cl)ccc(N(C)C(=O)CNC=O)c3Cl)cccn2c1Br — higher, 211 to 212 °C
- CCOC(=O)C1=C(C(F)(F)F)Nc2n[nH]cc2C1c1ccc(Cl)cc1 (centres undefined) — higher, 176 to 178 °C
- O=C(O)c1ccc(C2(F)CC2c2ccc(Cl)cc2)cc1 (centres undefined) — higher, 204 °C
- CC(=O)c1ccc(OCC(=O)NC2CCN(Cc3ccc(Cl)c(Cl)c3)CC2)cc1 — lower, 113 °C
- Cc1cc(C)c(CNc2cccc(S(=O)(=O)O)c2)c(C)c1 — higher, > 275 °C
- C1=C(N2c3ccccc3Sc3ccccc32)N(C2=NCCC2)CC1 — higher, 199 to 201 °C
- C#CCN1CCC(OC)(c2cccc(OCc3ccc4ccccc4c3)c2)C1 (centres undefined) — lower, 63 to 65 °C
- CCCCCc1ccc(C=Nc2ccc(C#N)cc2)cc1 — lower, 45.6 to 46.4 °C
- Cc1ccc(S(=O)(=O)CC2COc3ccccc3O2)cc1 (single isomer, unassigned; (+)) — lower, 60 °C
- CCCCCCCCCCCCCCC(=O)C(=O)NCCCC(=O)OC(C)(C)C — lower, 61 to 62 °C
- Cc1ccc(C(O)Cc2nc(C)c(C)nc2C)cc1 (centres undefined) — lower, 99 to 101 °C
- CC1CCN(CCNc2ccnc3cc(Cl)ccc23)CC1 — higher, 154 to 156 °C
- COc1cc(F)c(C)cc1N — lower, 108 to 110 °C
- Cc1ccc(C(=O)COc2cc(C)cc(C)c2C)nc1 — lower, 94 to 95 °C
- COCO[C@@H]1[C@H]2OC(C)(C)O[C@H]2[C@H](O[C@H]2C[C@H]3OC(C)(C)OC[C@]34C3C(CC[C@]4(O)C2)[C@@]2(O)CC[C@H](C#N)[C@@]2(C)C[C@H]3OCOC)O[C@H]1C (some centres undefined) — lower, 97 to 99 °C
- CCCCCCNC(=S)NN=C(CCCCl)c1ccccc1 — lower, 42 to 44 °C
- C[C@@H]1OC(=O)[C@H]2[C@H]3O[C@H]([C@H]4CCCC[C@H]43)[C@@H]21 — higher, 148 to 149 °C
- CC(C)N(CCOc1cccc2nc(Cl)c3ccccc3c12)C(C)C — lower, 88 to 91 °C
- NC[C@H]1CCc2[nH]c3ccc(F)cc3c2C1 — lower, 121 to 123 °C
- C=C(C)C(=O)OCCN(CCOC(=O)C(=C)C)c1ccc(N=Nc2ccc([N+](=O)[O-])cc2)cc1 — lower, 88 to 90 °C
- Cn1cc(-c2ccc3nnc(C(F)(F)c4ccc5nc(NC(=O)C6CC6)cn5n4)n3c2)cn1 — higher, 275 °C
- COc1cc(Br)c(OC)c(CO)c1 — lower, 59 to 60 °C
- Cn1c(=O)c(C(=O)NC2CCCCC2)c(O)c2cc(F)ccc21 — higher, 193 °C
- CCc1cc(C=CN2C(=O)c3ccccc3C2=O)c(=O)[nH]c1C — higher, 296 to 298 °C
- CCOC(=O)C(O)=CC=C(C#N)c1ccccc1 — higher, 189 °C
- O=C1c2ccccc2C(=O)N1CCOCCOCCOCCOCCOCCN1C(=O)c2ccccc2C1=O — lower, 124 to 126 °C
- Cc1c(-c2cn(C)c3c(-c4ccccc4)cccc23)nc2ccc(F)cc2c1C(=O)O — lower, 107 to 108 °C
- Fc1ccc(C(c2ccccc2Cl)N2CCN(CCCOC(c3ccccc3)c3ccccc3)CC2)cc1 (centres undefined) — lower, 98 to 99 °C
- CN(CC(=O)[C@H](Cc1ccccc1)NC(=O)N1CCOCC1)C(=O)N1CCC[C@H]1C(=O)O — lower, 75 to 90 °C
- CCC(=O)c1cc(Cl)ccc1NS(=O)(=O)C(F)(F)F — lower, 54 to 55 °C
- Clc1ccccc1N=Nc1ncc[nH]1 — higher, 173 to 177 °C
- Cn1nnnc1C(CBr)=C(c1ccc(F)cc1)c1ccc(F)cc1 — higher, 159 to 160 °C
- O=C(COc1ccc(C(=O)C=CC(=O)N2CCCCC2)c(O)c1)Nc1nc2ccccc2s1 — higher, 207 to 210 °C
